Where two headings read alike, the source gives them in different places.

Data set [1] deals with T1, rat histamine H3 receptor (Rattus norvegicus, UniProt Q9QYN8).
T1 construct: encoding the entire 445-amino-acid rat histamine H3 receptor; expressed in transfected cells; membrane preparation
Briefly: Rat H3 radioligand binding ([3H]-N-alpha-methylhistamine, SPA). In short, it runs like this: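 Membranes from CHO-A3 cells stably expressing full-length rat H3 receptor (10 μg protein/well) incubated 4 h at room temperature, protected from light, with ~1 nM [3H]-N-alpha-methylhistamine and compound (0.01 nM-30 μM) in 50 mM Tris HCl pH 7.4, 5 mM MgCl2, 0.1% BSA. Binding read by SPA; 10 μM clobenpropit defined non-specific binding.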

Another data set concerns the target T2, human H3 receptor (Homo sapiens, UniProt Q9Y5N1).
T2 construct: expressed in transfected cells
The experiment in a line: Human H3 radioligand binding ([3H]-N-alpha-methylhistamine, SPA). In short, it runs like this:
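SPA competition binding on membranes from CHO cells stably expressing human H3 receptor (10 μg protein/well) with ~1 nM [3H]-N-alpha-methylhistamine and compound at 0.01 nM-30 μM. Incubation 4 h at room temperature in 50 mM Tris-HCl pH 7.4, 5 mM MgCl2, 0.1% BSA; non-specific binding defined with 10 μM clobenpropit.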

[2] abbreviates: Table C, rat H3 binding, read-out: Rat H3 Ki.
Where [3] appears, read: Table C, human H3 binding, read-out: Human H3 Ki.
[4] abbreviates: Rat H3 binding, Table B, Examples 136-362, read-out: rat H3 binding Ki.
Setting [5] is: Human H3 binding, Table B, Examples 136-362, read-out: hum H3 binding Ki.
Where [6] appears, read: rat H3 binding, Table D, read-out: Rat H3 Ki.
Where [7] appears, read: human H3 binding, Table D, read-out: Human H3 Ki.

T1 sequence (Q9QYN8 whole entry): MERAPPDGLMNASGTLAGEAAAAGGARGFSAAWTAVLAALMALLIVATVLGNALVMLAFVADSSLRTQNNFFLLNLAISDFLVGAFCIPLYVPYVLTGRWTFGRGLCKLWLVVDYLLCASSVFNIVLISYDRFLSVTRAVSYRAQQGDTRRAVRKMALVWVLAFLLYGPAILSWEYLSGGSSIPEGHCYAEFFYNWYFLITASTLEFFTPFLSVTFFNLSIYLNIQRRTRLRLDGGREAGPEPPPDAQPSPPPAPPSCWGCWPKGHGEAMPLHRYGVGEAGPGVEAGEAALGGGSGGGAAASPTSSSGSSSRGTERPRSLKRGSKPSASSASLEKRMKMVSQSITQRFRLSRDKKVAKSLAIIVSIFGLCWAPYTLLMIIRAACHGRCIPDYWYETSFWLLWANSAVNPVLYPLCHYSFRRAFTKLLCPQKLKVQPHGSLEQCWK
T2 sequence (Q9Y5N1 whole entry): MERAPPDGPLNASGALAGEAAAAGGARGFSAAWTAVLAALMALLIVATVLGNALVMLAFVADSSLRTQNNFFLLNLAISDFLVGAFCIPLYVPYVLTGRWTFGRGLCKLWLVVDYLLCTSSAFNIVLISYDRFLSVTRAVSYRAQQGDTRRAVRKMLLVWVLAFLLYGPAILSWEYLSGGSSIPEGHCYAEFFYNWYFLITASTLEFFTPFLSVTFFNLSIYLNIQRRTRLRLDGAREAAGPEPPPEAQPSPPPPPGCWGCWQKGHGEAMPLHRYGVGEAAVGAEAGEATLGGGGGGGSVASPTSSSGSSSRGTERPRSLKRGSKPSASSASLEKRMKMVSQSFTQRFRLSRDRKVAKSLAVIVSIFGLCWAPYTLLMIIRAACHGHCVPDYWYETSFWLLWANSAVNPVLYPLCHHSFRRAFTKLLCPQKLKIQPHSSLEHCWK

On to `N#Cc1cccc(Nc2ccc3c(c2)COC2(CCN(C4CCC4)CC2)O3)c1` [Example 123], for which the melting point was in the range of 55 to 60 °C. The Ki in data set [1] (Table A, rat H3 binding, read-out: Rat Ki) is < 200 nM. Besides, the Ki on human H3 receptor (Table A, human H3 binding, read-out: Human Ki) is < 200 nM.
`Cc1cccc(N2CCN(c3ccc4c(c3)CCC3(CCN(C5CCC5)CC3)O4)CC2)n1` [Example 366] showed a melting point of 159 to 161 °C. Besides, the Ki in data set [1] (setting [2]) was < 200 nM. Moreover, the Ki at human H3 receptor (setting [3]) was < 200 nM.
`CN1CC(COc2ccc3c(c2)CCC2(CCN(C4CCC4)CC2)O3)CC1=O` (stereo not drawn) [Example 519] displayed a melting point of 234 to 236 °C. Also, the Ki in data set [1] (read-out: Rat H3 kI) is < 200 nM. In addition, the Ki at human H3 receptor (read-out: Human H3 Ki) is < 200 nM.
Turning to `CC(C)OCCNC(=O)c1ccc(-c2ccc3c(c2)CCC2(CCN(C4CCC4)CC2)O3)cc1` [Example 312], the melting point was in the range of 135 to 137 °C. For the same molecule, in data set [1] (setting [4]), the Ki is < 200 nM. The Ki at human H3 receptor (setting [5]) is < 200 nM.
`COc1ccc(-c2ccc3c(c2C)COC2(CCN(C4CCC4)CC2)O3)cn1` [Example 551] showed a melting point of 231 to 232 °C. Also, the Ki in data set [1] (read-out: Rat H3 kI) is < 200 nM. The Ki on human H3 receptor (read-out: Human H3 Ki) was < 200 nM.
Turning to `CCN(CC)C(=O)N1CCN(c2ccc3c(c2)CCC2(CCN(C4CCC4)CC2)O3)CC1` [Example 394], the melting point is 272 to 274 °C. Besides, the Ki in data set [1] (setting [2]) was < 200 nM. For the same molecule, at human H3 receptor (setting [3]), the Ki was < 200 nM.
In turn, `c1cc2c(cc1N1CCC3(CC1)OCCO3)CCC1(CCN(C3CCC3)CC1)O2` [Example 398] gave a melting point of 135 to 137 °C. Moreover, the Ki in data set [1] (setting [2]) was < 200 nM. In addition, the Ki on human H3 receptor (setting [3]) was < 200 nM.
As to `OC(c1ccncc1)c1ccc2c(c1)COC1(CCN(C3CCC3)CC1)O2` (stereo not drawn) [Example 683], the melting point was in the range of 69 to 72 °C. In addition, the Ki in data set [1] (setting [6]) is < 200 nM. The Ki at human H3 receptor (setting [7]) is < 200 nM.
As for `O=c1ccc(-c2ccc3c(c2)COC2(CCN(C4CCOCC4)CC2)O3)c[nH]1` [Example 723], the melting point fell in the range of 230 to 232 °C. In addition, the Ki in data set [1] (setting [6]) was < 200 nM. Also, on human H3 receptor (setting [7]), the Ki is < 200 nM.
`Cn1cc(-c2ccc3c(c2)COC2(CCN(C4CCC4)CC2)O3)cnc1=O` [Example 680] gave a melting point of 230 to 231 °C. Also, the Ki in data set [1] (setting [6]) is < 200 nM. The Ki at human H3 receptor (setting [7]) is < 200 nM.
On to `COCCNC(=O)c1c(F)cc(-c2ccc3c(c2)COC2(CCN(C4CCC4)CC2)O3)cc1F` [Example 262], for which the melting point was in the range of 125 to 126.3 °C. Moreover, the Ki in data set [1] (setting [4]) is < 200 nM. The Ki on human H3 receptor (setting [5]) was < 200 nM.
Regarding `COCCNC(=O)c1ccc(-c2ccc3c(c2)CCC2(CCN(C4CCC4)CC2)O3)cc1F` [Example 217], the melting point was in the range of 190 to 192 °C. The Ki in data set [1] (setting [4]) is < 200 nM. Further, on human H3 receptor (setting [5]), the Ki was < 200 nM.
In turn, `COc1ncc(Oc2ccc3c(c2)CCC2(CCN(C4CCC4)CC2)O3)cn1` [Example 503] registered a melting point of 227 to 229 °C. Further, the Ki in data set [1] (read-out: Rat H3 kI) was < 200 nM. Further, on human H3 receptor (read-out: Human H3 Ki), the Ki was < 200 nM.
`COCCN(C)C(=O)c1ccc(-c2ccc3c(c2)COC2(CCN(C4CCC4)CC2)O3)cc1Cl` [Example 577]: the melting point lay in the range of 105 to 107 °C. For the same molecule, in data set [1] (setting [6]), the Ki was < 200 nM. Also, at human H3 receptor (setting [7]), the Ki is < 200 nM.
As for `c1cc2c(cc1OCc1nnc(C3CC3)o1)CCC1(CCN(C3CCC3)CC1)O2` [Example 671], the melting point fell in the range of 158 to 159 °C. For the same molecule, the Ki in data set [1] (setting [6]) is < 200 nM. Also, the Ki on human H3 receptor (setting [7]) was < 200 nM.
Molecule `CC(C)c1nnc(CCc2ccc3c(c2)COC2(CCN(C4CCC4)CC2)O3)o1` [Example 695] returned a melting point of 101 to 103 °C. Also, in data set [1] (setting [6]), the Ki was < 200 nM. The Ki on human H3 receptor (setting [7]) was < 200 nM.
Molecule `O=C(NC1CCOCC1)c1ccc(-c2ccc3c(c2)COC2(CCN(C4CCC4)CC2)O3)cc1F` [Example 640] registered a melting point of 165 to 167 °C. Also, the Ki in data set [1] (setting [6]) was < 200 nM. At human H3 receptor (setting [7]), the Ki was < 200 nM.
`COCCNC(=O)c1c(F)cc(-c2ccc3c(c2)CCC2(CCN(C4CCC4)CC2)O3)cc1F` [Example 256] gave a melting point of 64.9 to 65.4 °C. Further, the Ki in data set [1] (setting [4]) is < 200 nM. For the same molecule, the Ki at human H3 receptor (setting [5]) was < 200 nM.
